Data on 12 compounds can be found in US6967237B2, “Ghrelin analogs” (priority 2000, dated 2005).

Like-named read-outs stand apart in the source and are kept apart here. Where a SMILES comes first, the peptide text is derived from it. Where no end group is shown, it is not given here. [ ]: non-standard residue; d: D form. The star is where a group is joined. Octanoyl = CCCCCCCC(=O)*

For one experiment, the target named is human GHSR1a (Homo sapiens, UniProt Q92847). Nature of the experiment: Aequorin bioluminescence functional assay (intracellular calcium mobilization) in 293AEQ17/GHSR1a cells. It counts as cell-based. Conditions: for activation at 10 µM: read-out: Functional Assay % activation at 10 μM relative to ghrelin; for EC50: aequorin bioluminescence, HEK-293 cells expressing hGHSR1a, three separate assays.

Another experiment addresses human GHS receptor 1a (Homo sapiens, UniProt Q92847). Nature of the experiment: Competitive binding assay with [35S]-MK-677 on membranes of HEK 293-aequorin cells transfected with human GHS receptor. The note with it: competition with 0.05 nM [35S]-MK-677; three separate assays in triplicate.
The next experiment concerns somatotrops. The note with it: several species including man; cited from earlier work.

Sequence of human GHSR1a (Q92847 whole entry): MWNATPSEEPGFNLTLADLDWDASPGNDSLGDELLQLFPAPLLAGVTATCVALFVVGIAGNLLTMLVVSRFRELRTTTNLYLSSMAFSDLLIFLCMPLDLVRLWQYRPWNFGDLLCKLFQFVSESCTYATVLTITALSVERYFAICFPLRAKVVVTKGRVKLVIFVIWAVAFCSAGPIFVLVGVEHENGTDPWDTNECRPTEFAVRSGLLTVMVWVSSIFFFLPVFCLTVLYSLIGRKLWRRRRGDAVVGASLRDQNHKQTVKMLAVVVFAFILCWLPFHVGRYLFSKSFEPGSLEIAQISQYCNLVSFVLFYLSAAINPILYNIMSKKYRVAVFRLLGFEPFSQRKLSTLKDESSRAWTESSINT
Sequence of human GHS receptor 1a (Q92847 whole entry): as above
Description for human GHS receptor 1a: Prior to the binding assay, the HEK 293-AEQ17 cells (8×10^5 cells plated 18 hours before transfection in a T75 flask) were transfected with 22 μg of human GHS receptor plasmid using 264 μg lipofectamine. The open reading frame cDNA (SEQ. ID. NO. 22) encoding the human GHS receptor inserted in the mammalian expression vector pcDNA-3 (Invitrogen, Carlsbad, Calif.) was used for binding and expression studies.
For a 96-well filter binding assay, 0.05 nM [^35S]-NM-677 (specific activity ˜1200 Ci/mmol) was bound to 4 μg membrane protein per well with or without competing test ligand. The bound membranes were filtered on 0.5% polyethylenimine prewet filters (UniFilter 96 GF/C; Packard #6005174, Meriden, Conn.). Filters were washed 8 times, dried, and counted with Microscint 20 (Packard #6013621, Meriden, Conn.). IC50 values were determined from three separate assays performed in triplicate.
Description for human GHSR1a: A stable cell line expressing the human GHSR1a and the aequorin reporter protein were used for the assay.
The assay was performed using a Luminoskan RT luminometer (Labsystems Inc., Gaithersburg, Md.) controlled by custom software written for a Macintosh PowerPC 6100. […] The cells were harvested, washed once in ECB medium and resuspended to 500,000 cells/ml. 100 ml of cell suspension (corresponding to 5×10^4 cells) was then injected into the test plate containing the peptides, and the integrated light emission was recorded over 30 seconds, in 0.5 second units. 20 μL of lysis buffer (0.1% final Triton X-100 concentration) was then injected and the integrated light emission recorded over 10 seconds, in 0.5 second units. The “fractional response” values for each well were calculated by taking the ratio of the integrated response to the initial challenge to the total integrated luminescence including the Triton X-100 lysis response. The functional EC50 values were measured in three separate assays.

With `CCCCCCCC(=O)NC[C@H](NC(=O)[C@H](CO)NC(=O)CN)C(=O)N[C@@H](Cc1ccccc1)C(=O)N[C@@H](CC(C)C)C(=O)N[C@@H](CO)C(=O)N1CCC[C@H]1C(=O)N[C@@H](CCC(=O)O)C(=O)N[C@@H](Cc1c[nH]cn1)C(=O)N[C@@H](CCC(N)=O)C(=O)N[C@@H](CCCNC(=N)N)C(=O)N[C@H](C(=O)N[C@@H](CCC(N)=O)C(=O)N[C@@H](CCC(N)=O)C(=O)O)C(C)C` [Compound 14], the activation at 10 µM at human GHSR1a (at 10 μM, relative to ghrelin) was determined as 102 ± 3%.

Turning to `CCCCCCCC(=O)OC[C@H](NC(=O)[C@H](CO)NC(C)=O)C(=O)N[C@@H](Cc1ccccc1)C(N)=O` [Compound 26, Ac-SXF-NH2] (Ac-Ser-Ser(Octanoyl)-Phe-NH2), the activation at 10 µM at human GHSR1a (at 10 μM, relative to ghrelin) worked out at 28 ± 1%.

Take `CCCCCCCC(=O)OC[C@H](NC(=O)[C@H](CO)NC(=O)CN)C(=O)N[C@@H](Cc1ccccc1)C(=O)N[C@@H](CC(C)C)C(=O)N[C@@H](CO)C(=O)N1CCC[C@H]1C(=O)N[C@@H](CCC(=O)O)C(=O)N[C@@H](Cc1c[nH]cn1)C(=O)N[C@@H](CCC(N)=O)C(=O)N[C@@H](CCCNC(=N)N)C(=O)N[C@H](C(=O)N[C@@H](CCC(N)=O)C(=O)N[C@@H](CCC(N)=O)C(=O)N[C@@H](CCCNC(=N)N)C(=O)N[C@@H](CCCCN)C(=O)N[C@@H](CCC(=O)O)C(=O)N[C@@H](CO)C(N)=O)C(C)C` [Compound 19, GSXFLSPEHQRVQQRKES-NH2] (H-GSS(Octanoyl)FLSPEHQRVQQRKES-NH2; N-terminus assumed): on human GHSR1a (at 10 μM, relative to ghrelin), the activation at 10 µM was found to be 92 ± 16%.

For `CCCCCCCC(=O)OC[C@H](NC(=O)[C@H](CO)NC(=O)CN)C(N)=O` [Compound 24, GSX-NH2] (H-Gly-Ser-Ser(Octanoyl)-NH2), the activation at 10 µM on human GHSR1a was 28 ± 1%.

Regarding `CCCCCCCC(=O)OC[C@H](NC(=O)[C@H](CO)NC(=O)CN)C(=O)N[C@@H](Cc1ccccc1)C(=O)N[C@@H](CC(C)C)C(N)=O` [Compound 21, GSXFL-NH2] (H-GSS(Octanoyl)FL-NH2), the activation at 10 µM on human GHSR1a (at 10 μM, relative to ghrelin) was determined as 96 ± 7%.

Regarding `CCCCCCCC(=O)OC[C@H](NC(C)=O)C(=O)N[C@@H](Cc1ccccc1)C(=O)N[C@@H](CC(C)C)C(N)=O` [Compound 25, Ac-XFL-NH2] (Ac-Ser(Octanoyl)-Phe-Leu-NH2), at human GHSR1a, the EC50 turned out to be 2500 ± 1200 nM and the activation at 10 µM was 29 ± 7%.

Regarding `CCCCCCCC(=O)OC[C@H](NC(=O)[C@H](CO)NC(=O)CN)C(=O)N[C@@H](Cc1ccccc1)C(=O)N[C@@H](CC(C)C)C(=O)N[C@@H](CO)C(=O)N1CCC[C@H]1C(=O)N[C@@H](CCC(=O)O)C(=O)N[C@@H](Cc1c[nH]cn1)C(=O)N[C@@H](CCC(N)=O)C(=O)N[C@@H](CCCNC(=N)N)C(=O)N[C@H](C(=O)N[C@@H](CCC(N)=O)C(=O)N[C@@H](CCC(N)=O)C(=O)N[C@@H](CCCNC(=N)N)C(=O)N[C@@H](CCCCN)C(=O)N[C@@H](CCC(=O)O)C(=O)N[C@@H](CO)C(=O)N[C@@H](CCCCN)C(=O)N[C@@H](CCCCN)C(=O)N1CCC[C@H]1C(=O)N1CCC[C@H]1C(=O)N[C@@H](C)C(N)=O)C(C)C` [Compound 18, GSXFLSPEHQRVQQRKESKKPPA-NH2] (H-GSS(Octanoyl)FLSPEHQRVQQRKESKKPPA-NH2), the activation at 10 µM at human GHSR1a (at 10 μM, relative to ghrelin) turned out to be 100 ± 4%.

`CCCCCCCC(=O)OC[C@H](NC(=O)[C@H](CO)NC(=O)CN)C(=O)N[C@@H](Cc1ccccc1)C(=O)N[C@@H](CC(C)C)C(=O)N[C@@H](CO)C(=O)N1CCC[C@H]1C(=O)N[C@@H](CCC(=O)O)C(=O)N[C@@H](Cc1c[nH]cn1)C(=O)N[C@@H](CCC(N)=O)C(=O)N[C@@H](CCCNC(=N)N)C(=O)N[C@H](C(=O)N[C@@H](CCC(N)=O)C(=O)N[C@@H](CCC(N)=O)C(N)=O)C(C)C` [Compound 13, GSXFLSPEHQRVQQ]: at human GHSR1a (at 10 μM, relative to ghrelin), the activation at 10 µM amounted to 97 ± 9%.

Regarding `CCCCCCCC(=O)NC[C@H](NC(=O)[C@H](CO)NC(=O)CN)C(=O)N[C@@H](Cc1ccccc1)C(=O)N[C@@H](CC(C)C)C(=O)N[C@@H](CO)C(=O)N1CCC[C@H]1C(=O)N[C@@H](CCC(=O)O)C(=O)N[C@@H](Cc1c[nH]cn1)C(=O)N[C@@H](CCC(N)=O)C(=O)N[C@@H](CCCNC(=N)N)C(=O)N[C@H](C(=O)N[C@@H](CCC(N)=O)C(=O)N[C@@H](CCC(N)=O)C(=O)N[C@@H](CCCNC(=N)N)C(=O)N[C@@H](CCCCN)C(=O)N[C@@H](CCC(=O)O)C(=O)N[C@@H](CO)C(=O)N[C@@H](CCCCN)C(=O)N[C@@H](CCCCN)C(=O)N1CCC[C@H]1C(=O)N1CCC[C@H]1C(=O)N[C@@H](C)C(=O)N[C@@H](CCCCN)C(=O)N[C@@H](CC(C)C)C(=O)N[C@@H](CCC(N)=O)C(=O)N1CCC[C@H]1C(=O)N[C@@H](CCCNC(=N)N)C(=O)O)C(C)C` [Compound 12], the activation at 10 µM on human GHSR1a (at 10 μM, relative to ghrelin) was found to be 105 ± 5%.

At human GHS receptor 1a, `CCCCCCCC(=O)OC[C@H](NC(=O)[C@H](CO)NC(=O)CN)C(=O)N[C@@H](Cc1ccccc1)C(N)=O` [Compound 22, GSXF-NH2] (H-GSS(Octanoyl)F-NH2) registered an IC50 of 889 ± 72 nM. Further, the EC50 at human GHSR1a was determined as 72 ± 29 nM. At human GHSR1a (at 10 μM, relative to ghrelin), the activation at 10 µM was determined as 91 ± 4%.

On to H[dW]AW[dF]K-NH2 [GHRP-6], for which the “growth hormone release from somatotrops, result in words” value in the experiment with somatotrops is “release growth hormone from somatotrops in a dose-dependent manner”.

As for `CCCCCCCC(=O)OC[C@H](NC(=O)[C@H](CO)NC(C)=O)C(=O)N[C@@H](Cc1ccccc1)C(=O)N[C@@H](CC(C)C)C(N)=O` [Compound 23, Ac-SXFL-NH2] (Ac-SS(Octanoyl)FL-NH2), the EC50 at human GHSR1a worked out at 1150 ± 120 nM. Besides, on human GHSR1a (at 10 μM, relative to ghrelin), the activation at 10 µM worked out at 30 ± 5%.
